Tested on: Desulfotomaculum nigrificans (ATCC 19858)
Assay: D. nigrificans growth after biocide exposure in 0.1 wt % polyacrylamide
Type: cell-based
Parameters: key to D. nigrificans Growth Results / D. nigrificans Growth Results, Neutral Control: positive (+); negative (NEG)
Experimental: Example 2 illustrates the biocidal efficacy of peracetic acid, compared with glutaraldehyde, against another strain of sulfur-reducing bacteria, Desulfotomaculum nigrificans, present in an aqueous solution also containing 0.1 wt % polyacrylamide polymer. A range of peracetic acid and glutaraldehyde concentrations were evaluated for biocidal efficacy: 1, 5, 10, 25, 50, 75, 100, 200 and 300 ppm peracetic acid and the same concentrations for glutaraldehyde (except that 300 ppm was omitted).
The dilute aqueous polyacrylamide was prepared using an aqueous 50 wt % polyacrylamide solution (Sigma-Aldrich, St. Louis, Mo.) and diluting the polyacrylamide with deionized water to obtain 0.1 wt % polyacrylamide in water. The peracetic acid was Vigor Ox® SP-15 antimicrobial agent, containing about 15-17 wt % peracetic acid, 9-11 wt % hydrogen peroxide and 33-38 wt % acetic acid in water (FMC Corporation, Philadelphia, Pa.), and this peracetic acid solution was diluted to the desired concentration within the range 1 to 300 ppm peracetic acid for the various evaluations. The glutaraldehyde used in this Example 2 was a 50 wt % glutaraldehyde solution in water (Alfa Aesar, Ward Hill, Mass.), diluted with deionized water to the desired concentration within the range 1 to 200 ppm for the evaluations.
The bacterial strain used in this Example 2 was the sulfur-reducing bacterium Desulfotomaculum nigrificans (ATCC 19858 from American Type Culture Collection, Manassas, Va.). A working inoculum for each of the three studies described below was prepared by the following procedure. Baar's medium for sulfate reducers was inoculated with D. nigrificans from a cryogenic tube, grown at 50° C. anaerobically for a period sufficient to observe good growth of the culture (evident by blackening of the tube), between 2-7 days. This D. nigrificans culture was used as the working inoculum for each of the studies described below.
The methodology used in this Example 2 was as follows. A sterilized screw-cap tube containing 9.5-10 ml 0.1 wt % polyacrylamide was dosed with an appropriate amount of peracetic acid (or glutaraldehyde) to provide the desired peracetic acid (or glutaraldehyde) concentration (e.g., 1 to 300 ppm peracetic acid) in 10 ml 0.1 wt % polyacrylamide required for the study. The tubes were then vortex mixed and 0.1 ml D. nigrificans inoculum was added and again vortex mixed. The initial inoculation level was estimated as about 2.6×10^6 CFU/tube. Timing of the exposure period (e.g., 1 minute to 1 day) was begun when the D. nigrificans inoculum was added.
After the exposure period had elapsed, 1 ml of the treated mixture was added to a second tube containing 9 ml of Dey-Engley (D/E) neutralizing broth and vortex mixed. After about 5-8 minutes had elapsed, 1 ml of the neutralized solution was added to yet another tube containing 9 ml of Baar's modified medium for sulfate reducers. This tube was vortex mixed and then incubated anaerobically at 50° C., with the screw cap loosened, using an AnaeroPack (Mitsubishi Gas Chemical America, Inc., New York, N.Y.) in an anaerobic jar.
Growth controls were also carried out in the studies of this Example 2, using the following procedure. A screw-cap tube containing 10 ml of 0.1 wt % polyacrylamide was inoculated with 0.1 ml of D. nigrificans culture and then diluted in D/E neutralizing broth after the exposure period, vortex mixed, and then diluted in Baar's medium as described above. The control tubes were incubated at 50° C., also as described above, and monitored for growth after two days.
Neutralizing controls were also carried out for the peracetic acid and glutaraldehyde treatment agents to confirm that D/E neutralizing broth (which contains sodium bisulfite and […] among its neutralizing agents) was capable of neutralizing either peracetic acid or glutaraldehyde at the highest concentration used in each study. […]

O=CCCCC=O [Glutaraldehyde, glutaraldehyde, reference compound]
+: D. nigrificans Growth Results (first study, 1 ppm, 1 minute exposure) | D. nigrificans Growth Results (first study, 1 ppm, 1 hour exposure) | D. nigrificans Growth Results (first study, 1 ppm, 1 day exposure) | D. nigrificans Growth Results (first study, 5 ppm, 1 minute exposure) | D. nigrificans Growth Results (first study, 5 ppm, 1 hour exposure) | D. nigrificans Growth Results (first study, 5 ppm, 1 day exposure) | D. nigrificans Growth Results (first study, 10 ppm, 1 minute exposure) | D. nigrificans Growth Results (first study, 10 ppm, 1 hour exposure) | D. nigrificans Growth Results (first study, 10 ppm, 1 day exposure) | D. nigrificans Growth Results (first study, 25 ppm, 1 minute exposure) | D. nigrificans Growth Results (first study, 25 ppm, 1 hour exposure) | D. nigrificans Growth Results (first study, 25 ppm, 1 day exposure) | D. nigrificans Growth Results, Neutral Control (first study, 50 ppm biocide neutralized in D/E neutralizing broth before inoculation) | D. nigrificans Growth Results (first study, 50 ppm, 1 minute exposure) | D. nigrificans Growth Results (first study, 50 ppm, 1 hour exposure) | D. nigrificans Growth Results (first study, 50 ppm, 1 day exposure) | D. nigrificans Growth Results (second study, 50 ppm, 10 minutes exposure) | D. nigrificans Growth Results (second study, 50 ppm, 1 hour exposure) | D. nigrificans Growth Results (second study, 50 ppm, 1 day exposure) | D. nigrificans Growth Results (second study, 75 ppm, 10 minutes exposure) | D. nigrificans Growth Results (second study, 75 ppm, 1 hour exposure) | D. nigrificans Growth Results (second study, 75 ppm, 1 day exposure) | D. nigrificans Growth Results (second study, 100 ppm, 10 minutes exposure) | D. nigrificans Growth Results (second study, 100 ppm, 1 hour exposure) | D. nigrificans Growth Results (second study, 100 ppm, 1 day exposure) | D. nigrificans Growth Results, Neutral Control (second study, 200 ppm biocide neutralized in D/E neutralizing broth before inoculation) | D. nigrificans Growth Results (second study, 200 ppm, 10 minutes exposure) | D. nigrificans Growth Results (second study, 200 ppm, 1 hour exposure) | D. nigrificans Growth Results (second study, 200 ppm, 1 day exposure)
no biocidal control: biocidal control of D. nigrificans (first study, any of the concentrations (1 to 50 ppm) or exposure times (1 minute, 1 hour, 1 day)) | biocidal control of D. nigrificans (second study, any of the concentrations (50 to 200 ppm) or exposure times (10 minutes, 1 hour, 1 day))
